From patent US10888087B2, “Lactam solubility” (Conopco, Inc., priority 2015, dated 2021)

Assay: Screening of NIS: lactam solubility in water or water + non-ionic surfactant additive, quantified by HPLC
Format: physicochemical
Design: key to Solubility Increase vs water alone: fold: lactam dissolved in water+additive / lactam dissolved in water
Settings: for Mean Lactam Level in Solution (ppm): 48 hours agitation
Description: The following representative example uses 4-(4-chlorophenyl)-5-methylene-pyrrol-2-one.
Excess solid lactam (˜3 mg) was placed in a Whatman® Mini Uniprep sample vial, fitted with a 0.45 um nylon filter. Water or water+additive (NIS) (500 μL) was added the mixture shaken and tapped briefly to initially disperse the solid and the mixture then agitated for 48 hours using a plate shaker fitted with a vial holder. After 48 hours, the solid was removed from the system by pressing down the plunger with integral filter on the vial. This removes the solid and provides filtered solution within the inner chamber which is then ready for analysis.
The level of lactam dissolved in solution was quantified using HPLC analysis. Samples were analysed on an Agilent 1200® series HPLC fitted with a Thermo Hypersil Gold® C18 column (15×2.1×3 μm), isocratic elution with 60/40 methanol/water (+0.1% Formic Acid), 0.4 mL/min flow rate, using a DAD detector at 285 nm. The lactam tested has a retention time of ˜2.8 minutes.
For each additive, the absolute level of lactam in solution was measured and reported as an increase in solubility of lactam relative to water alone.
Each test surfactant solution was tested in triplicate and the mean value of lactam in solution calculated. Values of solubility were quoted as the improvement in aqueous solubility vs water alone (i.e. mean level of lactam dissolved in water+solvent/mean level of lactam dissolved in water) to allow comparison between screens conducted on different days.

[1] = Neodol 25-7, 0% additive in water
[2] = Neodol 25-7, 0.5% additive in water
[3] = Neodol 25-7, 1% additive in water
[4] = Neodol 25-7, 2% additive in water
[5] = Neodol 25-7, 5% additive in water
[6] = Neodol 25-7, 10% additive in water
[7] = Neodol 25-7, 20% additive in water
[8] = Tween 20, 0.5% additive in water
[9] = Tween 20, 10% additive in water
[10] = Tween 20, 20% additive in water
[11] = Tween 80, 0.5% additive in water
[12] = Tween 80, 10% additive in water

Structure (SMILES): C=C1NC(=O)C=C1c1ccc(Cl)cc1 [Ref. 488, 4-(4-chlorophenyl)-5-methylene-pyrrol-2-one]
- Solubility Increase vs water alone [1]: 1.0
- Mean Lactam Level in Solution (ppm) [1]: 2.4 ppm
- Solubility Increase vs water alone [2]: 48.3
- Mean Lactam Level in Solution (ppm) [2]: 116.0 ppm
- Solubility Increase vs water alone [3]: 84.7
- Mean Lactam Level in Solution (ppm) [3]: 203.2 ppm
- Solubility Increase vs water alone [4]: 162.7
- Mean Lactam Level in Solution (ppm) [4]: 390.4 ppm
- Solubility Increase vs water alone [5]: 251.4
- Mean Lactam Level in Solution (ppm) [5]: 603.3 ppm
- Solubility Increase vs water alone [6]: 255.2
- Mean Lactam Level in Solution (ppm) [6]: 612.5 ppm
- Solubility Increase vs water alone [7]: 189.8
- Mean Lactam Level in Solution (ppm) [7]: 455.6 ppm
- Solubility Increase vs water alone (Tween 20, 0% additive in water): 1.0
- Mean Lactam Level in Solution (ppm) (Tween 20, 0% additive in water): 1.7 ppm
- Solubility Increase vs water alone [8]: 36.9
- Mean Lactam Level in Solution (ppm) [8]: 61.6 ppm
- Solubility Increase vs water alone (Tween 20, 1% additive in water): 70.9
- Mean Lactam Level in Solution (ppm) (Tween 20, 1% additive in water): 118.3 ppm
- Solubility Increase vs water alone (Tween 20, 2% additive in water): 135.8
- Mean Lactam Level in Solution (ppm) (Tween 20, 2% additive in water): 226.5 ppm
- Solubility Increase vs water alone (Tween 20, 5% additive in water): 310.7
- Mean Lactam Level in Solution (ppm) (Tween 20, 5% additive in water): 518.3 ppm
- Solubility Increase vs water alone [9]: 497.3
- Mean Lactam Level in Solution (ppm) [9]: 829.6 ppm
- Solubility Increase vs water alone [10]: 927.0
- Mean Lactam Level in Solution (ppm) [10]: 1546.3 ppm
- Solubility Increase vs water alone (Tween 80, 0% additive in water): 1.00
- Mean Lactam Level in Solution (ppm) (Tween 80, 0% additive in water): 6.0 ppm
- Solubility Increase vs water alone [11]: 6.92
- Mean Lactam Level in Solution (ppm) [11]: 41.5 ppm
- Solubility Increase vs water alone (Tween 80, 1% additive in water): 12.51
- Mean Lactam Level in Solution (ppm) (Tween 80, 1% additive in water): 75.0 ppm
- Solubility Increase vs water alone (Tween 80, 2% additive in water): 20.56
- Mean Lactam Level in Solution (ppm) (Tween 80, 2% additive in water): 123.3 ppm
- Solubility Increase vs water alone (Tween 80, 5% additive in water): 34.74
- Mean Lactam Level in Solution (ppm) (Tween 80, 5% additive in water): 208.4 ppm
- Solubility Increase vs water alone [12]: 65.23
- Mean Lactam Level in Solution (ppm) [12]: 391.4 ppm
